# Measured values: article PMC6941172 (Journal of medicinal chemistry, 2018)
# “Also recorded” adds a separate entry of the source.
# Legend:
# Dopamine D5 = Dopamine D5 (Homo sapiens, UniProt P21918); test: PDSP radioligand displacement, [3H]SCH233930; format: binding; details: [3H]SCH233930, PDSP primary assay
# C57BL/6 mice = test: Spontaneous locomotor activity assay in mice; format: in vivo, mouse; details: for Hyperlocomotor action: IP 3, 10 and 30 mg/kg
# rats = test: Rotarod pilot experiment in rats; format: in vivo, rat
# [1] = Microsomal stability assay, mouse liver microsomes; format: in vitro ADME; details: for Increase in half-life (MLM) relative to parent ligand: vs respective parent (8a, 8i, 8n or 8k)
# adult male Wistar rats = test: Spontaneous locomotor activity assay in rats; format: in vivo, rat
# [2] = Pharmacokinetic study, IP 10 mg/kg, plasma and brain; format: in vivo, rat; details: rats
# [3] = Microsomal stability assay, human liver microsomes; format: in vitro ADME; details: for Increase in half-life (HLM) relative to parent ligand: vs respective parent (8a, 8i, 8n or 8k)
# HEPG2 (liver) cells = test: Cytotoxicity assay; format: cell-based, human; details: HEPG2, up to 400 μM, 48 hours
# HEK293 (kidney) cells = test: Cytotoxicity assay; format: cell-based, human; details: HEK293, up to 400 μM, 48 hours
# [4] = test system: BZP rat brain site of GABAARs; test: PDSP radioligand displacement, [3H]flunitrazepam; format: binding; details: [3H]flunitrazepam displacement
# GABAAR α6β3γ2 subtype = GABAAR α6β3γ2 subtype (Rattus norvegicus, UniProt P18508+P30191+P63079); test: Electrophysiological assay in Xenopus oocytes, modulation of GABA EC3 currents; format: cell-based
# DOR = DOR (Homo sapiens, UniProt P41143); test: PDSP radioligand displacement, [3H]DADLE; format: binding; details: PDSP primary assay
# α1-5β3γ2 receptors = test: Electrophysiological assay in Xenopus oocytes, other receptor subtypes; format: cell-based; details: two-point experiments
# Solubility assay = format: physicochemical; details: vs 8k, neutral and acidic aqueous media
# [5] = test system: Female Swiss Webster mice; details: 5 mg/kg positive control
# Chain of GABAAR α6β3γ2 subtype (P30191 20-453): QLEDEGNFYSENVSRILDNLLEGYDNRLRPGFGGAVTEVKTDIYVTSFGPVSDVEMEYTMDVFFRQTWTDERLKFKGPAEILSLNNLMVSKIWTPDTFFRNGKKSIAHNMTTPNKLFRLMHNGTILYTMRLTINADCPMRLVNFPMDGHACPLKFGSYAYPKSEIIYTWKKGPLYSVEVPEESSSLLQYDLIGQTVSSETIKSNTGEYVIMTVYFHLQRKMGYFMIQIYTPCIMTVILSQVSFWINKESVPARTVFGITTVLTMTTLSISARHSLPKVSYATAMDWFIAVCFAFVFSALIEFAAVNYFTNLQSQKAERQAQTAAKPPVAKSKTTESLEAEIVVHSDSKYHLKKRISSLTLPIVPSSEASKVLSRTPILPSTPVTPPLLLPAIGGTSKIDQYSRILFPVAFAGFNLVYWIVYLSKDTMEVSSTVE
# Chain of GABAAR α6β3γ2 subtype (P63079 26-473): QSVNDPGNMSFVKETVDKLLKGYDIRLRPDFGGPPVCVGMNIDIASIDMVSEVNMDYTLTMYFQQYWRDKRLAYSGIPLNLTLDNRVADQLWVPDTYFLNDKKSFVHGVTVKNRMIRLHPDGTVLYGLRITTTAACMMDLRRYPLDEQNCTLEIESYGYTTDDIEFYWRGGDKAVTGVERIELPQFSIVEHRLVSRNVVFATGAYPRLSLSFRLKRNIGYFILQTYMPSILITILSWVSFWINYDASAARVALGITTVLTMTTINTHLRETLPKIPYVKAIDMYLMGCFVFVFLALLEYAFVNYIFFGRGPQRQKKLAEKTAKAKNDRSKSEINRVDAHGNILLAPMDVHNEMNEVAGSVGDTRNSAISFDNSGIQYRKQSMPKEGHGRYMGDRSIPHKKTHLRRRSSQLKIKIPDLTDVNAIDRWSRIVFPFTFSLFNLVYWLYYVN
# Chain of GABAAR α6β3γ2 subtype (P18508 39-466): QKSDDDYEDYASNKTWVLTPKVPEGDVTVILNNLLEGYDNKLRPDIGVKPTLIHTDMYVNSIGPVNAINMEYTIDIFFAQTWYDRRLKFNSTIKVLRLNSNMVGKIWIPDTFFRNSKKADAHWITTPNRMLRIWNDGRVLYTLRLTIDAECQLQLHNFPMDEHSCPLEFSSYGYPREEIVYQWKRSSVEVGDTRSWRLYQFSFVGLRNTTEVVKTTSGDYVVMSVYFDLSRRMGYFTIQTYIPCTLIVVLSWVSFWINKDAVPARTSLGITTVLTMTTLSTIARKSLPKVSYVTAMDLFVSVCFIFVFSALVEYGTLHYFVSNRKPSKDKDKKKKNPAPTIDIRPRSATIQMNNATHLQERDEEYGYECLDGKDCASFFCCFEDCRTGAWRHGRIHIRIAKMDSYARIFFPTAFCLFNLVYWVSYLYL
# Chain of Dopamine D5 (P21918 whole entry): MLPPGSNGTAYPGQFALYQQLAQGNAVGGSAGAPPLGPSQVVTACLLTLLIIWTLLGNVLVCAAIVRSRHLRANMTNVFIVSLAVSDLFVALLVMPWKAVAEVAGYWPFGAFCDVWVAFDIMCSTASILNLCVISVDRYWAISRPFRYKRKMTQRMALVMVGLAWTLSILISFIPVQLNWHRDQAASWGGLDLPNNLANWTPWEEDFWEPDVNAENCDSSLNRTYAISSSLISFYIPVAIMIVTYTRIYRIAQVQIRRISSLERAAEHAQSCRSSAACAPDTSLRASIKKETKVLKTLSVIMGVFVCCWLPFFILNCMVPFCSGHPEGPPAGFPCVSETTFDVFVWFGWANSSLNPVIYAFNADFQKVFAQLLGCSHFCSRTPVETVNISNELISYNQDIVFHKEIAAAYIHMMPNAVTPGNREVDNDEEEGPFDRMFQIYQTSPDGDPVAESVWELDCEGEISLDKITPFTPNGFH
# Chain of DOR (P41143 whole entry): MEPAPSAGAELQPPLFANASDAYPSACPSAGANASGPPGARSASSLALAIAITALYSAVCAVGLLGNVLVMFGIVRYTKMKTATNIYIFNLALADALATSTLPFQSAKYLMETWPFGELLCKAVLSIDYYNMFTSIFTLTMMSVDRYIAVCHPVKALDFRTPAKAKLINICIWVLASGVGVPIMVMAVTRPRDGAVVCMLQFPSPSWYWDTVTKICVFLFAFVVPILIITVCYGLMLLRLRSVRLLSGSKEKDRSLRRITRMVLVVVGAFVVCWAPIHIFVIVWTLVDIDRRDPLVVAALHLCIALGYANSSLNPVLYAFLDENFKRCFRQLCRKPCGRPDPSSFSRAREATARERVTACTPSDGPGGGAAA
compound,measurement,setting,value
"COc1ccc(-n2nc3c4ccc(OC)cc4[nH]cc-3c2=O)cc1 [Compound 8a, 7-Methoxy-2-(4-methoxyphenyl)-2,5-dihydro-3H-pyrazolo[4,3-c]quinolin-3-one]",Activity at Dopamine D5,Dopamine D5,showed activity
same,Hyperlocomotor action,C57BL/6 mice,induced a hyperlocomotor action
"[2H]C([2H])([2H])Oc1ccc(-n2nc3c4ccc(OC)cc4[nH]cc-3c2=O)cc1 [Compound 8b, 7-Methoxy-2-(4-methoxy-d3-phenyl)-2,5-dihydro-3H-pyrazolo[4,3-c]quinolin-3-one]",Motor coordination and balance on the rotarod,rats; IP doses as high as 55 mg/kg,retained
same,Increase in half-life (MLM) relative to parent ligand,[1],three-fold
same,Hyperlocomotor response,"adult male Wistar rats; IP 10 mg/kg, first experiment (Figure 11A)",induced a hyperlocomotor response
same,Hyperlocomotor response,"adult male Wistar rats; IP 10 mg/kg, repeated experiment (Figure 11C)",did not reach statistical significance
same,Hyperlocomotor response,"adult male Wistar rats; IP 3 and 10 mg/kg, third experiment (Figure 11E)",present
same,Brain concentration (Cmax) compared with parent 8a,[2],almost two-fold increase
same,Free (unbound) brain concentrations,[2],~100 nM
same,Increase in half-life (HLM) relative to parent ligand,[3],2.5 fold
same,Hyperlocomotor effect in combination with diazepam,C57BL/6 mice; IP 10 mg/kg with diazepam 3 mg/kg IP,present
same,Hyperlocomotor action,C57BL/6 mice,induced a hyperlocomotor action
"[2H]C([2H])([2H])Oc1ccc2c3nn(-c4ccc(OC)cc4)c(=O)c-3c[nH]c2c1 [Compound 8c, 7-Methoxy-d3-2-(4-methoxyphenyl)-2,5-dihydro-3H-pyrazolo[4,3-c]quinolin-3-one]",Increase in half-life (MLM) relative to parent ligand,[1],four-fold
same,Brain concentration (Cmax) compared with parent 8a,[2],almost two-fold increase
same,Increase in half-life (HLM) relative to parent ligand,[3],three-fold
"[2H]C([2H])([2H])Oc1ccc(-n2nc3c4ccc(OC([2H])([2H])[2H])cc4[nH]cc-3c2=O)cc1 [Compound 8d, 7-Methoxy-d3-2-(4-methoxy-d3-phenyl)-2,5-dihydro-3H-pyrazolo[4,3-c]quinolin-3-one]",Brain concentration (Cmax) compared with parent 8a,[2],almost two-fold increase
"[2H]C([2H])([2H])Oc1cccc(-n2nc3c4ccc(OC([2H])([2H])[2H])cc4[nH]cc-3c2=O)c1 [Compound 8e, 7-Methoxy-d3-2-(3-methoxy-d3-phenyl)-2,5-dihydro-3H-pyrazolo[4,3-c]quinolin-3-one]",Cytotoxicity / cell viability,HEPG2 (liver) cells,no impact on cytotoxicity
same,Cytotoxicity / cell viability,HEK293 (kidney) cells,no impact on cytotoxicity
"[2H]C([2H])([2H])Oc1ccc2c3nn(-c4ccccc4OC([2H])([2H])[2H])c(=O)c-3c[nH]c2c1 [Compound 8f, 7-Methoxy-d3-2-(2-methoxy-d3-phenyl)-2,5-dihydro-3H-pyrazolo[4,3-c]quinolin-3-one]",Cytotoxicity / cell viability,HEPG2 (liver) cells,no impact on cytotoxicity
same,Cytotoxicity / cell viability,HEK293 (kidney) cells,no impact on cytotoxicity
"[2H]C([2H])([2H])Oc1ccccc1-n1nc2c3ccc(OC)cc3[nH]cc-2c1=O [Compound 8h, 7-Methoxy-2-(2-methoxy-d3-phenyl)-2,5-dihydro-3H-pyrazolo[4,3-c]quinolin-3-one]",Binding to the BZP rat brain site (in words),[4],significantly less binding; also recorded: significantly reduced affinity
"[2H]C([2H])([2H])Oc1cccc(-n2nc3c4cc(Cl)ccc4[nH]cc-3c2=O)c1 [Compound 8j, 8-Chloro-2-(3-methoxy-d3-phenyl)-2,5-dihydro-3H-pyrazolo[4,3-c]quinolin-3-one]",Increase in half-life (MLM) relative to parent ligand,[1],two-fold
same,Cytotoxicity / cell viability,HEPG2 (liver) cells,no impact on cytotoxicity
same,Cytotoxicity / cell viability,HEK293 (kidney) cells,no impact on cytotoxicity
same,Increase in half-life (HLM) relative to parent ligand,[3],three-fold
same,Efficacy / activity at the α6β3γ2 subtype (in words),GABAAR α6β3γ2 subtype,poorer efficacy
"[2H]C([2H])([2H])Oc1ccc(-n2nc3c4cc(Cl)ccc4[nH]cc-3c2=O)cc1 [Compound 8l, 8-Chloro-2-(4-methoxy-d3-phenyl)-2,5-dihydro-3H-pyrazolo[4,3-c]quinolin-3-one]",Interaction with DOR,DOR,weakly interacted
"[2H]C([2H])([2H])Oc1ccccc1-n1nc2c3cc(Cl)ccc3[nH]cc-2c1=O [Compound 8m, 8-Chloro-2-(2-methoxy-d3-phenyl)-2,5-dihydro-3H-pyrazolo[4,3-c]quinolin-3-one]",Motor coordination and balance on the rotarod,rats; IP doses as high as 60 mg/kg,retained
same,Cytotoxicity / cell viability,HEPG2 (liver) cells,no impact on cytotoxicity
same,Binding to the BZP rat brain site (in words),[4],reasonable binding affinity
same,Cytotoxicity / cell viability,HEK293 (kidney) cells,no impact on cytotoxicity
same,Efficacy / activity at the α6β3γ2 subtype (in words),GABAAR α6β3γ2 subtype,completely inactive; also recorded: no activity; also recorded: almost no efficacy
"[2H]C([2H])([2H])Oc1ccc(-n2nc3c4ccc(Br)cc4[nH]cc-3c2=O)cc1 [Compound 8o, 7-Bromo-2-(4-methoxy-d3-phenyl)-2,5-dihydro-3H-pyrazolo[4,3-c]quinolin-3-one]",Increase in MLM-mediated half-life,[1]; vs parent 8n,20%
same,Increase in half-life (HLM) relative to parent ligand,[3],two-fold
same,Efficacy / activity at the α6β3γ2 subtype (in words),GABAAR α6β3γ2 subtype,efficacies comparable to 8n
"[2H]C([2H])([2H])Oc1ccccc1-n1nc2c3ccc(Br)cc3[nH]cc-2c1=O [Compound 8q, 7-Bromo-2-(2-methoxy-d3-phenyl)-2,5-dihydro-3H-pyrazolo[4,3-c]quinolin-3-one]",Binding to the BZP rat brain site (in words),[4],significantly less binding; also recorded: significantly reduced affinity
"[2H]C([2H])([2H])Oc1ccc(-n2nc3c4ccc(OC)cc4[nH]cc-3c2=O)cn1 [Compound 13b, 7-Methoxy-2-(6-methoxy-d3-pyridin-3-yl)-2,5-dihydro-3H-pyrazolo[4,3-c]quinolin-3-one]",Efficacy / activity at the α6β3γ2 subtype (in words),GABAAR α6β3γ2 subtype,retained some efficacy
"[2H]C([2H])([2H])Oc1ccc2c3nn(-c4ccc(OC)nc4)c(=O)c-3c[nH]c2c1 [Compound 13c, 7-Methoxy-d3-2-(6-methoxypyridin-3-yl)-2,5-dihydro-3H-pyrazolo[4,3-c]quinolin-3-one]",Activity at α1-5β3γ2 receptors,α1-5β3γ2 receptors,lack of activity
same,Brain AUC0-12 as % of that obtained with 8b,[2],45%
same,Brain AUC0-12 as % of that obtained with 8c,[2],36%
same,Brain AUC0-12 as % of that obtained with 8d,[2],55%
same,Brain concentration (Cmax) compared with parent 8a,[2],considerably less
same,Cytotoxicity / cell viability,HEPG2 (liver) cells,no impact of cell viability
same,Cytotoxicity / cell viability,HEK293 (kidney) cells,no impact of cell viability
same,Efficacy / activity at the α6β3γ2 subtype (in words),GABAAR α6β3γ2 subtype,retained some efficacy
"COc1ccc(-n2nc3c4cc(Cl)ccc4[nH]cc-3c2=O)cn1 [Compound 13e, 8-Chloro-2-(6-methoxypyridin-3-yl)-2,5-dihydro-3H-pyrazolo[4,3-c]quinolin-3-one]",Decrease in water solubility,Solubility assay,~10 fold
same,Increase in half-life (MLM) relative to parent ligand,[1],two-fold
same,Cytotoxicity / cell viability,HEPG2 (liver) cells,no impact of cell viability
same,Cytotoxicity / cell viability,HEK293 (kidney) cells,no impact of cell viability
same,Increase in half-life (HLM) relative to parent ligand,[3],nearly four-fold
"[2H]C([2H])([2H])Oc1ccc(-n2nc3c4cc(Cl)ccc4[nH]cc-3c2=O)cn1 [Compound 13f, 8-Chloro-2-(6-methoxy-d3-pyridin-3-yl)-2,5-dihydro-3H-pyrazolo[4,3-c]quinolin-3-one]",Increased half-life (HLM),[3]; vs OCH3 N-hetero ligand 13e,40%
same,Efficacy / activity at the α6β3γ2 subtype (in words),GABAAR α6β3γ2 subtype,much poorer efficacy
"COc1ccc(-n2nc3c4ccc(Br)cc4[nH]cc-3c2=O)cn1 [Compound 13g, 7-Bromo-2-(6-methoxypyridin-3-yl)-2,5-dihydro-3H-pyrazolo[4,3-c]quinolin-3-one]",Increase in half-life (MLM) relative to parent ligand,[1],seven-fold
same,Cytotoxicity / cell viability,HEPG2 (liver) cells,no impact of cell viability
same,Cytotoxicity / cell viability,HEK293 (kidney) cells,no impact of cell viability
same,Increase in half-life (HLM) relative to parent ligand,[3],seven-fold
"[2H]C([2H])([2H])Oc1ccc(-n2nc3c4ccc(Br)cc4[nH]cc-3c2=O)cn1 [Compound 13h, 7-Bromo-2-(6-methoxy-d3-pyridin-3-yl)-2,5-dihydro-3H-pyrazolo[4,3-c]quinolin-3-one]",Increase in stability in MLM,[1]; vs 8o,30 fold
same,Increased stability (MLM half-life),[1]; vs OCH3 N-hetero ligand 13g,six-fold
same,Increase in metabolic stability in HLM,[3]; vs 8o,11 fold
same,Increased stability (HLM half-life),[3]; vs OCH3 N-hetero ligand 13g,three-fold
same,Efficacy / activity at the α6β3γ2 subtype (in words),GABAAR α6β3γ2 subtype,retained some efficacy; also recorded: efficacies comparable to 8n
"COc1ccc(-n2nc3c4cnc(OC)cc4[nH]cc-3c2=O)cc1 [Compound 13i, 7-Methoxy-2-(4-methoxyphenyl)-2,5-dihydro-3H-pyrazolo[4,3-c][1,6]naphthyridin-3-one]",Efficacy / activity at the α6β3γ2 subtype (in words),GABAAR α6β3γ2 subtype,retained some efficacy
CN1C(=O)CN=C(c2ccccc2)c2cc(Cl)ccc21 [diazepam],Rotarod motor impairment,[5],greatest impairment of sensorimotor steadiness at 10 minutes
